What all share (assay): relative viability (nuclei count vs DMSO), 5 days (fraction); higher = more cells survive
Compound in test [1]: C1=CC2=NC=CN=C2C=C1/C=C/3\C(=O)NC(=O)S3 + CC(C)C[C@H](NC(=O)[C@H](Cc1ccccc1)NC(=O)c1cnccn1)B(O)O [Bortezomib] (partner 0.002 µM)
A digest of the protocol: (§1)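 After 5 days of treatment, lung cancer cells in 1536-well plates were fixed and stained in a single step (final 0.05% Triton X-100, 1% formaldehyde, 1 ug/ml Hoechst) and their nuclei counted on 4× images. Treatment had been applied by pin tool the day after seeding as one drug alone or as a fixed anchor-drug dose with five library-drug doses (not always all listed) in √10 steps. Relative viability is the nuclei count of treated wells divided by that of vehicle wells, and values are medians of duplicate plates.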

Compound in test [2]: C1=CC2=NC=CN=C2C=C1/C=C/3\C(=O)NC(=O)S3 + COc1cccc2cc(-c3nc([C@H]4CC[C@H](C(=O)O)CC4)n4ncnc(N)c34)[nH]c12 [OSI-027] (partner 0.5 µM)
A digest of the protocol:
as §1

Compound in test [3]: C1=CC2=NC=CN=C2C=C1/C=C/3\C(=O)NC(=O)S3 + N=C(N)NC(=N)NCCc1ccccc1 [Phenformin] (partner 250 µM)
The gist of the method:
as §1

Compound in the test “BGJ398 + Foretinib”: CCN1CCN(c2ccc(Nc3cc(N(C)C(=O)Nc4c(Cl)c(OC)cc(OC)c4Cl)ncn3)cc2)CC1 [BGJ398] + COc1cc2c(Oc3ccc(NC(=O)C4(C(=O)Nc5ccc(F)cc5)CC4)cc3F)ccnc2cc1OCCCN1CCOCC1 [Foretinib] (partner 0.25 µM)
A digest of the protocol: as §1

Turning to UMC-11, the relative viability in test [1] (first compound 0.02 µM) was 0.869; in test [1] (first compound 0.06325 µM), 0.965; in test [1] (first compound 0.2 µM), 0.523; in test [1] (first compound 0.6325 µM) it was 0.591; in test [1] (first compound 2 µM), 0.997; in test [2] (first compound 0.02 µM), 0.56. Besides, the relative viability in test [2] (first compound 0.06325 µM) worked out at 0.527; in test [2] (first compound 0.2 µM), 0.552; in test [2] (first compound 0.6325 µM) it was 0.475; in test [2] (first compound 2 µM), 0.439; in test [3] (first compound 0.02 µM) it was 0.329; in test [3] (first compound 0.06325 µM) it was 0.335. Further, the relative viability in test [3] (first compound 0.2 µM) stood at 0.373; in test [3] (first compound 0.6325 µM) it was 0.338; in test [3] (first compound 2 µM), 0.331; with BGJ398 + Foretinib (first compound 0.01 µM), 0.962; with BGJ398 + Foretinib (first compound 0.03162 µM), 1; with BGJ398 + Foretinib (first compound 0.1 µM) it was 1.14. Besides, the relative viability with BGJ398 + Foretinib (first compound 0.3162 µM) is 0.977; in the test with BGJ398 + Foretinib (first compound 1 µM), 0.924.

Source of the values: the supplement of paper PMC10307832.
